Laboratory results taken from US20210355105A1, “REGULATOR OF NITROGEN-CONTAINING HETEROAROMATIC DERIVATIVES, PREPARATION METHOD THEREFOR AND USE THEREOF” (Jiangsu Hansoh Pharmaceutical Group Co., Ltd., priority 2018, published 2021).

What was measured:
[1] = Pharmacokinetics assay in rats, single intravenous injection; type: in vivo; settings: male SD rats
Description: SD rats were used as test animals.
The solution was subjected to ultrasound to obtain a clear solution. The solution was filtered with a 0.22 μm water filter, and the filtrate was the formulation for intravenous administration (i.v.). The concentration was 0.2 mg/mL.
After an overnight fast, male SD rats (3 rats per group) were administered intravenously with the test compounds at an administration dose of 1 mg/kg and an administration volume of 5 mL/kg.
0.2 mL of blood was taken from jugular vein before administration and at 0 minute, 5 minutes, 15 minutes, 0.5 hour, 1.0 hour, 2.0 hours, 4.0 hours, 8.0 hours and 24.0 hours after administration. The blood samples were stored in EDTA-2K tubes, and centrifuged for 6 minutes at 6000 rpm, at 4° C. to separate the blood plasma. The plasma samples were stored at −80° C. The rats were fed four hours after administration.

[2] = Pharmacokinetics assay in MiaPaca 2 tumor-bearing mice (plasma, tumor tissue, intestine); type: in vivo; settings: female, mouse, oral 6 mg/kg
Description: MiaPaca 2 tumor-bearing mice were used as test animals.
Twenty-four female MiaPaca 2 tumor-bearing mice were used. Three mice were used for each time point (0 hour, 1 hour, 2 hours, 4 hours, 6 hours, 8 hours, 16 hours and 24 hours). The mice were purchased from Shanghai Sippr-BK laboratory animal Co. Ltd., with Certificate No.: SCXK (Shanghai) 2018-0006.
The solution was shaked well, and subjected to ultrasound for 15 minutes to obtain a uniform suspension with a concentration of 0.6 mg/mL.
After fast, MiaPaca 2 tumor-bearing mice were administered orally (p.o.) with the test compound according to body weight at an administration dose of 6 mg/kg and an administration volume of 10 mL/kg (the animals were not administered with the test compound on 0 hour).
The mice were euthanized by CO2 before administration and after administration, and 0.5 mL of blood was taken from heart. The blood samples were stored in EDTA-2K tubes, and centrifuged for 6 minutes at 6000 rpm, at 4° C. to separate the blood plasma. The plasma samples were stored at −80° C. The tumor tissue was weighed, placed in a 2 mL centrifuge tube, and stored at −80° C. An appropriate length of duodenum, ileum and colon tissues were taken and cut open with scissors, and the contents were removed. The above tissues were washed with PBS twice, and the moisture was absorbed with absorbent paper. The tissues were weighed, placed in a 2 mL centrifuge tube, and stored at −80° C.

- F ([1]; printed in the i.v. 1 mg/kg table): 118%
- AUC(0-inf) ([1]; rat, iv, i.v. 1 mg/kg, plasma): 613 ng·h/mL
- C0 ([1]; rat, iv, i.v. 1 mg/kg, plasma): 311 ng/mL
- MRT ([1]; rat, iv, i.v. 1 mg/kg, plasma): 4.26 h
- clearance ([1]; rat, iv, i.v. 1 mg/kg, plasma): 27.2 mL/min/kg
- half-life ([1]; rat, iv, i.v. 1 mg/kg, plasma): 3.35 h
- Vd ([1]; rat, iv, i.v. 1 mg/kg, plasma, read-out: Vss): 7 L/kg
- AUC(0-inf) ([2]; Colon): 9180 ng·h/mL
- Cmax ([2]; Colon): 1310 ng/mL
- MRT ([2]; Colon): 5.8 h
- Tmax ([2]; Colon): 4 h
- half-life ([2]; Colon): 2.8 h
- AUC(0-inf) ([2]; Duodenum): 16300 ng·h/mL
- Cmax ([2]; Duodenum): 5420 ng/mL
- MRT ([2]; Duodenum): 4.8 h
- Tmax ([2]; Duodenum): 1 h
- half-life ([2]; Duodenum): 4.8 h
- AUC(0-inf) ([2]; Ileum): 10000 ng·h/mL
- Cmax ([2]; Ileum): 1930 ng/mL
- MRT ([2]; Ileum): 6.1 h
- Tmax ([2]; Ileum): 2 h
- half-life ([2]; Ileum): 5.3 h
- AUC(0-inf) ([2]; Plasma): 2860 ng·h/mL
- Cmax ([2]; Plasma): 386 ng/mL
- MRT ([2]; Plasma): 7.5 h
- Tmax ([2]; Plasma): 1 h
- half-life ([2]; Plasma): 4.8 h
- AUC(0-inf) ([2]; Tumor): 51800 ng·h/mL
- Cmax ([2]; Tumor): 2390 ng/mL
- MRT ([2]; Tumor): 19.1 h
- Tmax ([2]; Tumor): 8 h
- half-life ([2]; Tumor): 11.5 h
SMILES: Nc1nc(N2CCC3(CC2)Cc2ccccc2[C@H]3N)c(F)nc1Sc1ccnc(N)c1Cl [Example 179, (S)-1′-(6-amino-5-((2-amino-3-chloropyridin-4-yl)thio)-3-fluoropyrazin-2-yl)-1,3-dihydrospiro[indene-2,4′-piperidin]-1-amine]
